According to article PMC6019134, “1,2,6-Thiadiazinones as Novel Narrow Spectrum Calcium/Calmodulin-Dependent Protein Kinase Kinase 2 (CaMKK2) Inhibitors” (Molecules : A Journal of Synthetic Chemistry and Natural …, 2018):
Where “and” joins values, the source holds several entries; their conditions need not be identical. Equal values may be shown once.

Tests used:
[1] = target: T1, CAMKK2 kinase domain (132–470) (Homo sapiens, UniProt Q96RR4); assay: CaMKK2B TR-FRET tracer displacement assay; format: binding; conditions: for IC50 / FRET (IC50): CaMKK2, displacement of tracer 236, average of 2 experiments; for increase in potency over compound 2: CaMKK2 FRET IC50 relative to compound 2
T1 construct: CAMKK2 kinase domain (132–470) was cloned in a pNIC-Bio2 vector; 10xHis tag followed by a TEV site (N, cleaved yes); made in house; host or cells: E. coli BL21(DE3)-R3-BirA
T1 sequence (Q96RR4 132-470): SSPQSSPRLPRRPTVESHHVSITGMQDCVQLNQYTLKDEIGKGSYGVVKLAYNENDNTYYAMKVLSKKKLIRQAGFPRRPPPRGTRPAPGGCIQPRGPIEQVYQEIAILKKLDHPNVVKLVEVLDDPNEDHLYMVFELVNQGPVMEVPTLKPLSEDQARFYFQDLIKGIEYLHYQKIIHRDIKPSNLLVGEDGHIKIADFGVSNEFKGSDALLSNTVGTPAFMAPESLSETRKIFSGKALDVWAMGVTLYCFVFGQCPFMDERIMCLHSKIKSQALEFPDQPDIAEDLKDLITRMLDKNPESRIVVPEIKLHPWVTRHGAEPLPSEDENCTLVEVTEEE
Text: To more accurately determine the relative changes in potency of the TDZ analogues and to enable measurement of accurate IC50^’s, we developed a Time-Resolved Fluorescence Resonance Energy Transfer (TR-FRET) assay. The TR-FRET tracer displacement assays were generated using a protocol derived from the Lanthascreen binding assays (ThermoFisher Scientific, Waltham, MA, USA) [21].

[2] = target: T2, human CaMKK2 (residues 50–588) (Homo sapiens, UniProt Q96RR4); assay: CaMKK2 enzyme assay ([γ-32P]-ATP, CaMKKtide peptide); format: biochemical; conditions: for IC50: 50 μM ATP, 7 concentrations, mean of 2 experiments;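 as to all read-outs here: radiometric kinase assay: phosphate transfer from [γ-32P]-ATP to synthetic peptide substrate, 10 min reaction at 30 °C, peptide-bound radioactivity captured on P81 paper and measured by scintillation counting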
T2 construct: recombinant bacterial expressed human CaMKK2 (residues 50–588); made in house
Experimental: CaMKK2 activity was measured by determining the rate of transfer of radiolabeled phosphate from [γ-^32P]-ATP to a synthetic peptide substrate [22].
A standard 30 μL assay, 1 ng of recombinant bacterial expressed human CaMKK2 (residues 50–588) was added to assay buffer (50 mM HEPES [pH 7.4], 1 mM DTT, 0.02% (v/v) Brij-35) containing 200 μM CaMKKtide peptide substrate, 50 μM CaCl2, 1 μM calmodulin (Sigma-Aldrich Corp., St. Louis, MO, USA), 50 μM [γ-^32P]-ATP (Perkin Elmer) and 5 mM MgCl2, in the presence and absence of different concentrations of small-molecule inhibitors. Reactions were incubated for 10 min at 30 °C, after which they were terminated by spotting 15 μL onto P81 phosphocellulose paper (Whatman, GE Healthcare, Chicago, IL, USA) and washing extensively in 1% phosphoric acid. Radioactivity was quantified by scintillation counting.

[3] = Chemical stability of the dianilinothiadiazinone core (TLC); format: physicochemical; conditions: 48 h; neutral, acidic (HCl 2 M) or pH 9 aqueous conditions, BuNH2, PhNH2, PhSH, DDQ, Sn
Experimental: After the synthesis of the desired dianilino-TDZs (1–5), the stability of dianilinothiadiazinone in biological systems was assessed: 3,5-bis(phenylamino)-4H-1,2,6-thiadiazin-4-one (9) was subjected to neutral, acidic or slightly basic aqueous conditions (H2O/DMSO 50:50, THF/HCl 2 M 50:50 or THF/H2O 50:50 at pH 9 with a carbonate buffer), presence of amine or thiol nucleophiles (BuNH2 1 equiv., PhNH2 1 equiv., PhSH 1 equiv.), oxidizing [2,3-dichloro-5,6-dicyano-1,4-benzoquinone (DDQ) 2 equiv.] and reducing conditions (Sn, 2 equiv.).

[4] = set-up: method as in PMID 17519230, PMID 12540834; conditions: cited from earlier work
[5] = test system: arylhydrocarbon receptor (AhR); set-up: method as in PMID 18755850; conditions: cited from earlier work
[6] = test system: kinases including ERK8, MNK1 and PIM3; set-up: method as in PMID 17519230, PMID 12540834; conditions: cited from earlier work

Row | Molecule | IC50 [1] [µM] | Enzyme assay raw data (0 μM drug = 100.00) ([2]; [drug] 0.001 μM) | Enzyme assay raw data (0 μM drug = 100.00) ([2]; [drug] 0.01 μM) | Enzyme assay raw data (0 μM drug = 100.00) ([2]; [drug] 0.1 μM) | Enzyme assay raw data (0 μM drug = 100.00) ([2]; [drug] 1 μM) | Enzyme assay raw data (0 μM drug = 100.00) ([2]; [drug] 10 μM) | Enzyme assay raw data (0 μM drug = 100.00) ([2]; [drug] 100 μM) | melting point | other results
1 | Cc1ccc(Nc2nsnc(Nc3ccc(-c4ncc[nH]4)cc3)c2=O)cc1O [Compound 11, 3-{[4-(1H-Imidazol-2-yl)phenyl]amino}-5-[(3-hydroxy-4-methylphenyl)amino]-4H-1,2,6-thiadiazin-4-one] | 3.2 | 98.56 | 93.09 | 84.85 | 79.37 | 42.11 | 1.23 |  | increase in potency over compound 2 [1]: > 15 fold; IC50 [2]: 6.51 µM and 6.5 µM
2 | 4-({5-[(3-Hydroxy-4-methylphenyl)amino]-4-oxo-4H-1,2,6-thiadiazin-3-yl}(oxazol-4-ylmethyl)amino)-benzamide [Compound 16] | > 50 |  |  |  |  |  |  |  | 
3 | Cc1ccc(Nc2nsnc(-c3ccc(C(=O)O)c(C4CCCC4)c3)c2=O)cc1O [Compound 19, 2-Cyclopentyl-4-{5-[(3-hydroxy-4-methylphenyl)amino]-4-oxo-4H-1,2,6-thiadiazin-3-yl}-benzoic acid] | 38 |  |  |  |  |  |  | 277 to 278 °C | 
4 | Cc1ccc(Nc2nsnc(Nc3ccccc3C#N)c2=O)cc1O [Compound 13, 2-({5-[(3-Hydroxy-4-methylphenyl)amino]-4-oxo-4H-1,2,6-thiadiazin-3-yl}amino)benzonitrile] | 43 |  |  |  |  |  |  | 229 to 230 °C | 
5 | Cc1ccc(Nc2nsnc(Nc3ccccc3C(N)=O)c2=O)cc1O [Compound 10, 2-({5-[(3-Hydroxy-4-methylphenyl)amino]-4-oxo-4H-1,2,6-thiadiazin-3-yl}amino)benzamide] | 7.8 | 102.30 | 98.48 | 91.02 | 85.36 | 52.53 | 2.19 |  | increase in potency over compound 2 [1]: > 8 fold; IC50 [2]: 11.9 µM
6 | Cc1ccc(Nc2nsnc(Nc3cccc(C#N)c3)c2=O)cc1O [Compound 14, 3-({5-[(3-Hydroxy-4-methylphenyl)amino]-4-oxo-4H-1,2,6-thiadiazin-3-yl}amino)benzonitrile] | > 50 |  |  |  |  |  |  | 258 to 259 °C | 
7 | O=c1c(Nc2ccccc2)nsnc1Nc1ccccc1 [Compound 9, 3,5-bis(phenylamino)-4H-1,2,6-thiadiazin-4-one] |  |  |  |  |  |  |  |  | stability (by TLC) [3]: stable
8 | Cc1ccc(Nc2nsnc(Nc3cccc(C(F)(F)F)c3CO)c2=O)cc1O [Compound 18, 3-[(3-Hydroxy-4-methylphenyl)amino]-5-{[2-(hydroxymethyl)-3-(trifluoromethyl)phenyl]amino}-4H-1,2,6-thiadiazin-4-one] | > 50 |  |  |  |  |  |  |  | FRET (IC50) [1]: effectively inactive
9 | O=C(O)c1ccc2c3c1cccc3c(=O)n1c3ccccc3nc21 [STO-609, 7-oxo-7H-benzimidazo[2,1-a]benz[de]isoquinoline-3-carboxylic acid, reference compound] |  | 88.33 | 69.88 | 42.21 | 4.64 | 1.89 | 0.07 |  | solubility [4]: poor solubility; activity on arylhydrocarbon receptor (AhR) [5]: agonist; off-target kinome profile [6]: unfavorable off-target kinome profile
10 | Cc1ccc(Nc2nsnc(Nc3ccccc3CO)c2=O)cc1O [Compound 17, 3-[(3-Hydroxy-4-methylphenyl)amino]-5-{[2-(hydroxymethyl)phenyl]amino}-4H-1,2,6-thiadiazin-4-one] | > 50 |  |  |  |  |  |  |  | FRET (IC50) [1]: effectively inactive
11 | Cc1ccc(Nc2nsnc(Nc3ccc(C(=O)O)cc3)c2=O)cc1O [Compound 12, 4-({5-[(3-Hydroxy-4-methylphenyl)amino]-4-oxo-4H-1,2,6-thiadiazin-3-yl}amino)benzoic acid] | 10.5 | 102.38 | 95.03 | 89.54 | 79.70 | 28.43 | 0.83 |  | increase in potency over compound 2 [1]: > 5 fold; IC50 [2]: 4.09 µM and 4.1 µM
12 | Cc1ccc(Nc2nsnc(Nc3ccc(C#N)cc3)c2=O)cc1O [Compound 15, 4-({5-[(3-Hydroxy-4-methylphenyl)amino]-4-oxo-4H-1,2,6-thiadiazin-3-yl}amino)benzonitrile] | > 50 |  |  |  |  |  |  | 280 °C (dec.) | 
